According to patent publication US8088775B2, “Pharmaceutical composition for treating hair loss” (priority 2004, dated 2012):
Values joined by “and” are separate entries in the source; they are usually repeats but may differ in a detail not shown here. Equal values may be shown once. Where a name gives a salt, the structure may show the parent alone. Read-outs that look alike come from different tables or passages of the source.

Key:
hair loss [1] = details: for Degree of efficacy: 10-20% (number of persons) / Degree of efficacy: 20-40% (number of persons) / Degree of efficacy: 40-60% (number of persons) / Degree of efficacy: 60-80% (number of persons) / Degree of efficacy: Greater than 90% (number of persons) / Degree of efficacy: No effect (number of persons) / Time taken for the efficacy to be shown: 3-5 days (number of persons) / Time taken for the efficacy to be shown: 7 days (number of persons) / Time taken for the efficacy to be shown: 14 days (number of persons) / Time taken for the efficacy to be shown: 21 days (number of persons) / Time taken for the efficacy to be shown: 28 days (number of persons) / Time taken for the efficacy to be shown: Minor effect (number of persons): Example 3 primary specimens, extruded material, 10 mg effective component once a day
Text: Clinical Experiment to Study Effects for the Prevention of Hair Loss, and for Hair Toning and Hair Growth (1)
The extruded material thus obtained is dried in the floating air layer. The therapeutical efficacy for the prevention of hair loss is experimented clinically by using thus obtained extruded material as shown in Tables 6 and 7. The objects of clinical experiments are selected based on 35 male and female healthy adults older than 20 years old who suffer from symptoms of hair loss. The therapeutical efficacy of female hair loss is also tested as females suffering from hair loss are included in the specimen population (including 5 males in the placebo control group).

[2] = system: prostate glands of normal male SD rats; assay: Anti-androgenic effects in normal male SD rats: weight of prostate glands after 2 weeks; type: in vivo; details: oral; for Average weight of prostate glands: normal 8-week-old male SD rats, solvent control 333.8; for Weight of prostate glands versus solvent control group: normal male SD rats
Text: In-Vivo Experiment for the Observation of Anti-Androgenic Effects of Normal Male SD Rats (2)
After the experiments are completed, the changes in the weight of prostate glands removed from normal SD rats and the changes in the weight of normal SD rats measured are shown in Tables 4 and 5 and diagrammatized in FIGS. 3 and 4.

[3] = system: prostate glands of castrated male SD rats; assay: Anti-androgenic active effects in castrated male SD rats: weight of prostate glands after TP or DHTP inducement; type: in vivo; details: for Average weight of prostate glands / Average weight of prostate glands, prostatic hyperplasia inducement group: one week, solvent control 23.3±1.5 mg; for Weight of prostate glands after inducement with DHTP / Size of prostate glands enlarged by inducement with TP: one week oral; for Average weight of prostate glands, prostatic hyperplasia inducement group: hormone alone hypodermic (TP 10 μg or DHTP 20 μg) + vehicle oral
Protocol: In-Vivo Experiment for the Observation of Anti-Androgenic Active Effects of Castrated Male SD Rats (1)
(§1) Each compound is administered orally continuously for one week according to the method of administration shown in Table 1, prostate glands are removed from the rats in each group while watching, and their weights are measured.

hair loss [4] = details: for Degree of efficacy: 10-20% (number of persons) / Degree of efficacy: 20-40% (number of persons) / Degree of efficacy: 40-60% (number of persons) / Degree of efficacy: 60-80% (number of persons) / Degree of efficacy: Greater than 90% (number of persons) / Degree of efficacy: No effect (number of persons) / Time taken for the efficacy to be shown: 3-5 days (number of persons) / Time taken for the efficacy to be shown: 7 days (number of persons) / Time taken for the efficacy to be shown: 14 days (number of persons) / Time taken for the efficacy to be shown: 21 days (number of persons) / Time taken for the efficacy to be shown: 28 days (number of persons) / Time taken for the efficacy to be shown: Minor effect (number of persons): Example 5 tertiary specimens, tablets three times a day (30 mg=3×10 mg)
Protocol: Clinical Experiment to Study Effects for the Prevention of Hair Loss, and for Hair Toning and Hair Growth (3)
The effects for the prevention of hair loss are investigated by administering the tablets thus manufactured to 5 healthy adult males who are older than 20 years old and selected to be specimens three times a day (30 mg=3×10 mg).

hairs = details: Example 6; tablets 10 mg once a day for six months; FIG. 5A/5B
Text: Clinical Experiments to Study Effects of Epilation
The effects of epilation are investigated by administering the tablets thus manufactured once a day.

hair loss [5] = system: hair loss
Text: Clinical Experiment to Study Effects for the Prevention of Hair Loss, and for Hair Toning and Hair Growth (2)
The effect for the prevention of hair loss is investigated by administering the tablets thus manufactured to 20 healthy adult males who are older than 20 years old and selected to be specimens (including 5 males in the placaebo control group) once a day.

hair loss [6] = details: external application; cited from earlier work
[7] = Body weight of castrated male SD rats after one week; details: hormone alone (TP 10 μg or DHTP 20 μg) + vehicle oral, solvent control 122.1
Protocol: as §1

[8] = Example 3, 10 mg once a day, no effects with placebo
[9] = Example 4 secondary specimens, Total, tablets, 10 mg effective component once a day

## O=C(O)COCCN1CCN(C(c2ccccc2)c2ccc(Cl)cc2)CC1 (centres unmarked) [composition of the present invention, 2-[2-[4-[(4-chlorophenyl)phenylmethyl]-1-piperazinyl]ethoxy]-acetic acid dihydrochloride]
Hair loss [1]; [8]
  Effect of prevention of hair loss, time course: hair loss is prevented in almost all specimens in about three weeks
  Effects of the prevention of hair loss in males and females: remarkable effects of the prevention of hair loss are observed both in males and females
Hair loss [1]; Female (10)
  Degree of efficacy: 10-20% (number of persons): 0
  Degree of efficacy: 20-40% (number of persons): 0
  Degree of efficacy: 40-60% (number of persons): 3
  Degree of efficacy: 60-80% (number of persons): 6
  Degree of efficacy: Greater than 90% (number of persons): 0
  Degree of efficacy: No effect (number of persons): 1
  Time taken for the efficacy to be shown: 3-5 days (number of persons): 0
  Time taken for the efficacy to be shown: 7 days (number of persons): 1
  Time taken for the efficacy to be shown: 14 days (number of persons): 6
  Time taken for the efficacy to be shown: 21 days (number of persons): 2
  Time taken for the efficacy to be shown: 28 days (number of persons): 0
  Time taken for the efficacy to be shown: Minor effect (number of persons): 1
Hair loss [1]; Male (20)
  Degree of efficacy: 10-20% (number of persons): 0
  Degree of efficacy: 20-40% (number of persons): 0
  Degree of efficacy: 40-60% (number of persons): 6
  Degree of efficacy: 60-80% (number of persons): 13
  Degree of efficacy: Greater than 90% (number of persons): 1
  Degree of efficacy: No effect (number of persons): 0
  Time taken for the efficacy to be shown: 3-5 days (number of persons): 0
  Time taken for the efficacy to be shown: 7 days (number of persons): 6
  Time taken for the efficacy to be shown: 14 days (number of persons): 11
  Time taken for the efficacy to be shown: 21 days (number of persons): 3
  Time taken for the efficacy to be shown: 28 days (number of persons): 0
  Time taken for the efficacy to be shown: Minor effect (number of persons): 0
Hair loss [1]; Total
  Degree of efficacy: 10-20% (number of persons): 0
  Degree of efficacy: 20-40% (number of persons): 0
  Degree of efficacy: 40-60% (number of persons): 9
  Degree of efficacy: 60-80% (number of persons): 19
  Degree of efficacy: Greater than 90% (number of persons): 1
  Degree of efficacy: No effect (number of persons): 1
  Time taken for the efficacy to be shown: 3-5 days (number of persons): 0
  Time taken for the efficacy to be shown: 7 days (number of persons): 7
  Time taken for the efficacy to be shown: 14 days (number of persons): 17
  Time taken for the efficacy to be shown: 21 days (number of persons): 5
  Time taken for the efficacy to be shown: 28 days (number of persons): 0
  Time taken for the efficacy to be shown: Minor effect (number of persons): 1
[2]
  Average weight of prostate glands: 226.7 mg
  Weight of prostate glands versus solvent control group: significantly lower
[3]; DHTP 20 μg hypodermic + drug oral daily (finasteride 0.5 mg, composition 5 mg), dihydrochloride
  Average weight of prostate glands: 52.2 ± 1.1 mg and 52.2 mg
[3]
  Weight of prostate glands after inducement with DHTP: not greatly affected
  Size of prostate glands enlarged by inducement with TP: reduced to the normal size
[3]; TP 10 μg hypodermic + drug oral daily (finasteride 0.5 mg, composition 5 mg), dihydrochloride
  Average weight of prostate glands: 25.1 mg
Hair loss [4]; Example 5, tablets 30 mg a day
  Color and thickness of newly produced hairs: much stronger than those of old hairs
Hair loss [4]; Example 5, tablets 30 mg a day, 5 people
  Effects for the prevention of hair loss: superior within one week in all of 5 people
Hair loss [4]; Male (5)
  Degree of efficacy: 10-20% (number of persons): 0
  Degree of efficacy: 20-40% (number of persons): 0
  Degree of efficacy: 40-60% (number of persons): 0
  Degree of efficacy: 60-80% (number of persons): 2
  Degree of efficacy: Greater than 90% (number of persons): 3
  Degree of efficacy: No effect (number of persons): 0
  Time taken for the efficacy to be shown: 3-5 days (number of persons): 0
  Time taken for the efficacy to be shown: 7 days (number of persons): 5
  Time taken for the efficacy to be shown: 14 days (number of persons): 0
  Time taken for the efficacy to be shown: 21 days (number of persons): 0
  Time taken for the efficacy to be shown: 28 days (number of persons): 0
  Time taken for the efficacy to be shown: Minor effect (number of persons): 0
Hair loss [4]; Total (5)
  Degree of efficacy: 10-20% (number of persons): 0
  Degree of efficacy: 20-40% (number of persons): 0
  Degree of efficacy: 40-60% (number of persons): 0
  Degree of efficacy: 60-80% (number of persons): 2
  Degree of efficacy: Greater than 90% (number of persons): 3
  Degree of efficacy: No effect (number of persons): 0
  Time taken for the efficacy to be shown: 3-5 days (number of persons): 0
  Time taken for the efficacy to be shown: 7 days (number of persons): 5
  Time taken for the efficacy to be shown: 14 days (number of persons): 0
  Time taken for the efficacy to be shown: 21 days (number of persons): 0
  Time taken for the efficacy to be shown: 28 days (number of persons): 0
  Time taken for the efficacy to be shown: Minor effect (number of persons): 0
hairs
  Effects of epilation (photograph, naked eyes): considerable effects of epilation
Hair loss [5]; Example 4, tablets 10 mg once a day
  Color and thickness of newly coming out hairs: much stronger than those of old hairs
Hair loss [5]; Example 4, tablets 10 mg once a day, 15 people, no effects with placebo
  Effects for the prevention of hair loss: superior within three weeks in all of 15 people
Hair loss [5]; [9]
  Degree of efficacy: 10-20% (number of persons): 0
  Degree of efficacy: 20-40% (number of persons): 0
  Degree of efficacy: 40-60% (number of persons): 5
  Degree of efficacy: 60-80% (number of persons): 9
  Degree of efficacy: Greater than 90% (number of persons): 1
  Degree of efficacy: No effect (number of persons): 0
  Time taken for the efficacy to be shown: 3-5 days (number of persons): 0
  Time taken for the efficacy to be shown: 7 days (number of persons): 1
  Time taken for the efficacy to be shown: 14 days (number of persons): 6
  Time taken for the efficacy to be shown: 21 days (number of persons): 8
  Time taken for the efficacy to be shown: 28 days (number of persons): 0
  Time taken for the efficacy to be shown: Minor effect (number of persons): 0

## CC(C)(C)NC(=O)[C@H]1CC[C@H]2[C@@H]3CC[C@H]4NC(=O)C=C[C@]4(C)[C@H]3CC[C@]12C [finasteride]
[2]
  Average weight of prostate glands: 220.0 mg
  Weight of prostate glands versus solvent control group: significantly lower
[3]; DHTP 20 μg hypodermic + drug oral daily (finasteride 0.5 mg, composition 5 mg)
  Average weight of prostate glands: 53.1 ± 1.4 mg and 53.1 mg
[3]
  Weight of prostate glands after inducement with DHTP: not greatly affected
  Size of prostate glands enlarged by inducement with TP: reduced to the normal size
[3]; TP 10 μg hypodermic + drug oral daily (finasteride 0.5 mg, composition 5 mg)
  Average weight of prostate glands: 24.5 ± 1.6 mg and 24.5 mg

## Nc1cc(N2CCCCC2)nc(N)[n+]1[O-] [Minoxidil, 6-(1-piperidinyl-2,4-pyrimidineamine-3-oxide)]
Hair loss [6]
  Reported side effects: contact dermatitis, dried mouth, lowering of blood pressure, dizziness

## CCC(=O)O[C@H]1CC[C@H]2[C@@H]3CC[C@H]4CC(=O)CC[C@]4(C)[C@H]3CC[C@]12C [DHTP, dihydrotestosterone propionate]
[7]
  Average body weight, inducement group: 118.7
[3]
  Average weight of prostate glands, prostatic hyperplasia inducement group: 58.4 ± 2.0 mg and 58.4 mg

## CCC(=O)O[C@H]1CC[C@H]2[C@@H]3CCC4=CC(=O)CC[C@]4(C)[C@H]3CC[C@]12C [TP, testosterone propionate]
[3]
  Average weight of prostate glands, prostatic hyperplasia inducement group: 63.6 ± 3.2 mg and 63.6 mg
